# Data as given in PMC6829886, “Inhibition of Non-Small Cell Lung Cancer Cells by Oxy210, an Oxysterol-Derivative that Antagonizes TGFβ and Hedgehog Signaling” (Cells, 2019).
# Columns and labels:
# [1] = tested on: Gli1 transcriptional activity; test: Gli responsive luciferase reporter in NIH3T3-E1 cells over expressing Gli1; assay type: cell-based, mouse; conditions: 10 μM, 72 hrs
# Procedure: NIH3T3-E1 cells cultured in 24 well-plates at 90% confluence were transiently transfected with 0.1 μg of Smad response-element reporter (SBE-Luciferase) plasmid (Qiagen), or with 0.1 μg of Gli response-element reporter (pGL3b-8xGli-Luciferase) plasmid, and 10 ng of pSV40-Renilla-Luciferase plasmid (Promega, Madison, WI, USA) with or without co-transfection with 10ng of Gli1 overexpression vector, pSRα-Gli1 using a Lipofectamine LTX Plus transfection reagent, as previously described. Sufu-/- cells cultured in 24 well-plates at 90% confluence were transiently transfected with 0.1μg of pGL3b-8xGli-Luciferase plasmid, and 10 ng of pSV40-Renilla-Luciferase plasmid. 6 hrs after transfection, cells were treated with test agents for 72 h. […] Then the firefly and Renilla luciferase activities were measured using a dual luciferase kit (Promega) and a GloMax-96 Microplate Luminometer (Promega) or a plate reader-SpectraMax iD3 (Molecular Devices, San Jose, CA, USA). […]
# Figure 5 Oxy210 acts downstream of Smo. […] After 72 h, RNA was extracted and analyzed by Q-RT-PCR for the expression of Hh target genes Gli1 and Hip, normalized to Oaz1 expression. […] Luciferase activity was measured and normalized to the Renilla luciferase activity. […]
# [2] = target: T1, Human TGFBR2 (Homo sapiens, UniProt P37173); test: TGFβ receptor II kinase inhibition assay (Eurofins); assay type: biochemical; conditions: vs. positive controls Cdk1/2 Inhibitor III and PKR Inhibitor
# T1 construct: Human TGFBR2 (amino acid 188-end); purchased Eurofins
# T1 sequence (P37173 188-567 limits assumed): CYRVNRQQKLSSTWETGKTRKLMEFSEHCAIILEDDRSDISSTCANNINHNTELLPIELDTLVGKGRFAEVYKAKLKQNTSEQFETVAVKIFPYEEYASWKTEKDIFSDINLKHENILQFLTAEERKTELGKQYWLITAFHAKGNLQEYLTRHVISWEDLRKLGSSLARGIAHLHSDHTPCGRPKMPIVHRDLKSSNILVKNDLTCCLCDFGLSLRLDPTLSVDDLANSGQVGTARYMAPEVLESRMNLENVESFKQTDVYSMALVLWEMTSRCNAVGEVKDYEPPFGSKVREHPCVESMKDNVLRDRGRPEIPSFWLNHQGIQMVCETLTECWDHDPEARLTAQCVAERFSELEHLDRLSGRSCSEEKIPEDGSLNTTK
# Procedure: Effect of Oxy210 on inhibition of TGFβ receptors I and II kinase activity was assessed by Eurofins (Celle-L’Evescault, France). TGFBR1 (h): Human TGFBR1 (amino acid 200 to end) was incubated with 8 mM MOPS pH 7.0, 0.2 mM EDTA, 1 mM MnCl2, 2 mg/mL casein, 10 mM Magnesium acetate and […] (specific activity and concentration as required). The reaction was initiated by the addition of the Mg/ATP mix. After incubation for 40 min at room temperature, the reaction was stopped by the addition of phosphoric acid to a concentration of 0.5%. 10 μL of the reaction was then spotted onto a P30 filtermat and washed four times for 4 min in 0.425% phosphoric acid and once in methanol prior to drying and scintillation counting. TGFBR2 (h): Human TGFBR2 (amino acid 188-end) was incubated with 20 mM Tris/HCl pH 8.5, 0.2 mM EDTA, 0.33 mg/mL MBP, 10 mM Magnesium acetate and [9-33P-ATP] (specific activity and concentration as required). The reaction was initiated by the addition of the Mg/ATP mix. After incubation for 120 min at room temperature, the reaction was stopped by the addition of phosphoric acid to a concentration of 0.5%. […]
# Figure 11 Inhibition of TGFβ-induced Smad2/3 phosphorylation and transcriptional activity. […] Luciferase activity was measured and normalized to the Renilla luciferase activity. […]
smiles,measurement,setting,value
"C[C@]12CC[C@H]3[C@@H](CC=C4C[C@@H](O)CC[C@@]43C)[C@@H]1CC[C@@H]2[C@](C)(O)CCc1cccnc1 [Oxy210, (3S,8S,9S,10R,13S,14S,17S)-17-((R)-2-hydroxy-4-(pyridin-3-yl)butan-2-yl)-10,13-dimethyl-2,3,4,7,8,9,10,11,12,13,14,15,16,17-tetradecahydro-1H-cyclopenta[a]phenanthren-3-ol]",transcriptional activity of Gli responsive luciferase reporter trans-activated by exogenous Gli1,[1],significantly inhibited
same,inhibitory activity on TβRII in functional kinase assay,[2],did not display significant inhibitory activity
